According to article PMC6630718, “Discovery of Novel UV-Filters with Favorable Safety Profiles in the 5-Arylideneimidazolidine-2,4-dione Derivatives Group” (Molecules, 2019):
“And” between values parts separate entries of the source, which are not always exact repeats. Equal values may be shown once. Read-outs that look alike come from different tables or passages of the source.

Columns and labels:
[1] = In vitro photoprotection study of 2% (w/w) macrogol formulations on PMMA plates; conditions: for UVA PF / UVA/UVB Ratio / λc (critical wavelength): 2% (w/w) macrogol formulation F1 (Triacetin 4.8%); for SPFin vitro: 2% (w/w) macrogol formulation F1 (Tween 20, PEG-400, PEG-1500, Triacetin 4.8%)
Method in brief: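 Compounds at 2% in macrogol (PEG-400/PEG-1500) formulations, predissolved in triacetin:Tween 20 (1:9) or DMSO; 32.5 mg applied to 25 cm² PMMA plates (5 µm roughness), glycerin-treated plate as reference. Per EN ISO 24443:2012, modified: reflectance absorbance 290–400 nm in 1 nm steps, averaged over 12 scans.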

[2] = Photostability in macrogol formulations on PMMA plates (solar light simulator); format: physicochemical; conditions: for % of Initial AUC / % of Initial SPFin vitro / % of Initial UVA PF: after 1 h irradiation at 500 W/m^2, formulation F1
Method in brief: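 Macrogol formulations (2% w/w) applied at 1.3 mg/cm² on PMMA plates were irradiated 1 h at 500 W/m² (218 kJ/m² UV) in a solar simulator with <290 nm cut-off and IR block. SPFin vitro, UVA PF and AUC were compared before and after exposure, with methanol washes analysed by UPLC-MS/MS, in duplicate.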

[3] = Ames MPF Penta 2 microplate mutagenicity assay, E. coli; format: cell-based; conditions: Escherichia coli, read-out: FIB (fold induction over baseline)
Method: The assay is a liquid microplate modification of the traditional Salmonella test. During the procedure, bacteria are exposed to different concentrations of a test compound for 90 min in a medium containing sufficient histidine (S. typhimurium) or tryptophan (E. coli) to support cell divisions. Then, the cultures are diluted in pH indicator medium lacking histidine or tryptophan and aliquoted into 48 wells of a 384-well plate. Within 48 hours, cells that have undergone reversion to amino acid prototrophy will grow into colonies. Bacterial metabolism reduces pH of the medium, changing the color of that well from purple to yellow (https://www.xenometrix.ch).
The following strains were used in the study: S. typhimurium TA98, TA100, TA1535, TA1537 and E. coli wp2 uvrA[pKM101]. TA100, TA1535 and E. coli strains are used for the detection of base substitution mutations, whereas TA98 and TA1537 are utilized for the detection of frameshift mutations. S. typhimurium strains have GC base pairs, whereas E. coli strain has AT base pair at their primary reversion site and detect certain oxidizing mutagens, cross-linking agents and hydrazines.
The test procedure provided by Xenometrix (https://www.xenometrix.ch) and described earlier was followed. Briefly, the bacterial strains were grown overnight in exposure medium and exposed to test compounds 4g and 3b in 24-well plates for 90 min at 37 °C with agitation in the absence (–S9) or presence (+S9) of 4.5% phenobarbital/ β-naphthoflavone-induced rat liver S9. Compounds 4g and 3b were dissolved in DMSO and tested at final concentrations of 0.1, 0.2 and 0.5 mM. After the preincubation, the cultures were diluted in the indicator medium and the contents of each 24-well culture were distributed into 48 wells on a 384-well plate and incubated further for 48 h at 37 °C without agitation. After the exposure, the number of wells containing bacteria was scored by eye for yellow wells. Positive and negative controls were included in the assay, and all doses were done in triplicate.
Pure DMSO was used as the negative control.
The fold increase of revertants relative to the solvent control was determined by dividing the mean number of positive wells at each dose by the solvent control at baseline. The solvent control at baseline was defined as the mean number of positive wells in the solvent control plus one standard deviation (SD). When an increase of more than 2-fold relative to the baseline at more than one dose with a dose–response is observed the sample is classified as positive, whereas when no response >2 times the baseline and no dose–response is stated the sample is negative.

[4] = E. coli wp2 uvrA[pKM101] without S9 (–S9), E. coli WP2, –S9, 0.1 mM
[5] = E. coli wp2 uvrA[pKM101] without S9 (–S9), E. coli WP2, –S9, 0.2 mM
[6] = E. coli wp2 uvrA[pKM101] without S9 (–S9), E. coli WP2, –S9, 0.5 mM

| Structure (SMILES) | UVA PF [1] | UVA/UVB Ratio [1] | λc (critical wavelength) [1] [nm] | SPFin vitro [1] | % of Initial AUC [2] | % of Initial SPFin vitro [2] | % of Initial UVA PF [2] | photostability (in words) ([2]; macrogol formulation) | fold induction at 90 min, 0.1 mM [3, 4] | fold induction at 90 min, 0.2 mM [3, 5] | fold induction at 90 min, 0.5 mM [3, 6] | fold induction at 90 min, 0.1 mM ([3]; E. coli WP2, +S9, 0.1 mM) | fold induction at 90 min, 0.2 mM ([3]; E. coli WP2, +S9, 0.2 mM) | fold induction at 90 min, 0.5 mM ([3]; E. coli WP2, +S9, 0.5 mM) | photoisomer in post-irradiation chromatogram ([2]; macrogol formulation, UPLC-MS/MS) [%] | new photoproduct (besides photoisomer), relative peak area ([2]; macrogol formulation, post-irradiation chromatogram) [%] |
| --- | --- | --- | --- | --- | --- | --- | --- | --- | --- | --- | --- | --- | --- | --- | --- | --- |
| CCOC(=O)CN1C(=O)/C(=C/C=C/c2ccc(OC)cc2)N(CC(=O)OCC)C1=O [Compound 4g, Diethyl 2,2′-((Z)-4-((E)-3-(4-methoxyphenyl)allylidene)-2,5-dioxoimidazolidine-1,3-diyl)diacetate] | 6.83 ± 0.05 | 4.50 ± 0.32 | 391 | 1.68 ± 0.04 | 51.98% | 86.29% | 34.39% | favorable photostability | 0.3 | 1.3 | 1.3 | 0.6 | 1 | 0.7 |  |  |
| CCOC(=O)CN1C(=O)/C(=C/c2ccc(OC)cc2)N(CC(=O)OCC)C1=O [Compound 3b, Diethyl 2,2′-((Z)-4-(4-methoxybenzylidene)-2,5-dioxoimidazolidine-1,3-diyl)diacetate] | 2.59 ± 0.23 | 0.84 ± 0.08 | 366 | 3.07 ± 0.04 | 84.67% and 76.50% | 80.46% and 72.69% | 87.04% and 84.08% | very good | 0.3 | 0.7 | 0.3 | 0.7 | 0.6 | 0.4 | 32.1 | 2.4 |
